Read-outs that look alike come from different tables or passages of the source.
What was measured:
Format in all cases: cell-based, human
MCF-7 cells [1] = assay: Apoptosis induction, Annexin V / propidium iodide flow cytometry; settings: MCF-7, IC25 concentration, 24 h
Procedure: MCF-7 and MCF-12A cells were seeded at a density of 1 × 10^5 in T25 flasks (Sarstedt, Germany) and incubated for 24 h at 37 °C with 5% CO2 allowing for attachment. Post -incubation, the media was removed, cells were washed with sterile PBS and then treated using IC25 concentrations established from the in vitro cytotoxicity screen. […] After the exposure period, the cells were enzymatically detached using trypsin, collected and centrifuged at 1200RPM for 10 min. The cells were then washed with PBS, re-centrifuged and resuspended in 1 ml of annexin binding buffer. Prior to staining, the concentration of each sample was adjusted to 1 × 10^6 cells/ml. The cells were stained with 1 μl of propidium iodide (PI) (Sigma, Ireland) (Cat #P4864) and 2 μl of Annexin V (Thermo Fisher Scientific, Ireland) (Cat #A13199). The cells were incubated at room temperature for 15 min prior to analysis. The staining process was completed in the dark to eliminate interference with photo-sensitive reagents. Immediately prior to analysis by flow cytometry, 400 μl of annexin binding buffer was added to each sample. Samples were analysed using a (CytoFLEX) (Beckman Coulter, USA). The AV/PI assay was completed three independent times.
Flow cytometry data analysis was performed with the CytExpert package (Ver. 2.4) (Beckman Coulter, USA) and Microsoft^Ⓡ Excel (USA). The mean MFI and percentage cells were calculated using these packages, followed by one-way ANOVA analysis with post hoc Bonferroni correction using GraphPad Prism (Ver. 9.4) (GraphPad, USA).
The induction of apoptosis was analysed in MCF-7 and MCF-12A cells using the Annexin V and Propidium Iodide assay with flow cytometry. […] The assay allows for the differentiation of viable, apoptotic and necrotic cells based on the selective staining of Annexin V and PI. Annexin V binds to phosphatidylserines externalised to the outer leaflet of the plasma membrane during apoptosis; and PI is a membrane impermeable dye that binds to DNA of necrotic cells with compromised plasma membranes.

MCF-12A cells = assay: In vitro cytotoxicity assessment, alamar blue assay, 24-h exposure
Procedure: The MCF-7 (human breast cancer) and MCF-12A (non-tumourigenic human breast) cell lines were obtained from the Technological University Dublin (TUDublin, City Campus) internal cell bank and commercially from the American Type Culture Collection (ATCC), respectively. Both cell lines were cultured using Dulbecco’s Modified Eagle Medium/Nutrient Mixture F-12 Ham (DMEM-F12) (Sigma, Ireland) (Cat# D6421) media. The MCF-7 media was supplemented with 10% Foetal Bovine Serum (Sigma, Ireland) (Cat# F7524) and 1% L-Glutamine (Sigma, Ireland) (Cat# 592020C). The MCF-12A media was supplemented with 5% Equine Serum (Sigma, Ireland) (Cat# H0146) 1.25% L-Glutamine (Sigma, Ireland) (Cat# 592020C), 20 ng/ml Human Epidermal Growth Factor (Thermo Fisher Scientific, Ireland) (Cat# PHG0313), 0.01 mg/ml insulin (Thermo Fisher Scientific, Ireland)(Cat# 12585014) and 500 ng/ml hydrocortisone (Sigma, Ireland) (Cat# H0888). The cells were grown in T75 culture flasks (Sarstedt, Germany) (Cat# 83.3911.002) and were incubated in a 5% CO2 atmosphere at 37 ℃. The cells were monitored daily, and once 80–90% confluence was reached, they were subcultured with an enzymatic dissociation method using trypsin. Both cell lines were routinely subcultured for 1 week prior to beginning experimental work, to ensure the cells had adapted to the environment.
The MCF-7 and MCF-12A cells were seeded at a density of 1 × 10^4 in 96-well flat bottom plates (Sarstedt, Germany) (Cat# 83.3924) and incubated in a 5% CO2 atmosphere at 37 ℃ for 24 h prior to exposure to the complexes. Following the incubation period, the media was removed, and cells were washed with sterile phosphate-buffered saline (PBS). […] All agents were diluted in supplemented cell culture media, and the cells were exposed to a concentration range of 0.5 μM–100 μM for 24 h in the conditions outlined previously. Following the exposure period, the drug-containing media was removed, and cells were washed three times with PBS, ensuring complete removal of the test agents. A 5% working solution of Alamar Blue (Thermo Fisher Scientific, Ireland) (Cat# DAL1100) was prepared in dark conditions using unsupplemented cell culture media. 100 μl of the solution was added to each well, and the cells were incubated for 3 h. Following incubation, absorbance values were obtained using a Varioskan Lux (Thermo Scientific, USA) at 570 nm and 600 nm wavelengths. Each exposure was carried out in triplicate plates and was repeated three independent times.
The software packages Microsoft^Ⓡ Excel (USA) and GraphPad Prism (Ver. 10.0.3) (GraphPad, USA) were used to analyse the alamar blue data. The treated sample values were first normalised to the negative control values. After normalisation, the mean and standard deviations (SD) were established using Microsoft^Ⓡ Excel. The statistical analysis package GraphPad was then used to determine the IC25 and IC50 concentrations. […] A p value of 0.05 or lower is considered to be statistically significant.

MCF-7 cells [2] = assay: as above
Procedure: The MCF-7 (human breast cancer) and MCF-12A (non-tumourigenic human breast) cell lines were obtained from the Technological University Dublin (TUDublin, City Campus) internal cell bank and commercially from the American Type Culture Collection (ATCC), respectively. Both cell lines were cultured using Dulbecco’s Modified Eagle Medium/Nutrient Mixture F-12 Ham (DMEM-F12) (Sigma, Ireland) (Cat# D6421) media. The MCF-7 media was supplemented with 10% Foetal Bovine Serum (Sigma, Ireland) (Cat# F7524) and 1% L-Glutamine (Sigma, Ireland) (Cat# 592020C). The MCF-12A media was supplemented with 5% Equine Serum (Sigma, Ireland) (Cat# H0146) 1.25% L-Glutamine (Sigma, Ireland) (Cat# 592020C), 20 ng/ml Human Epidermal Growth Factor (Thermo Fisher Scientific, Ireland) (Cat# PHG0313), 0.01 mg/ml insulin (Thermo Fisher Scientific, Ireland)(Cat# 12585014) and 500 ng/ml hydrocortisone (Sigma, Ireland) (Cat# H0888). The cells were grown in T75 culture flasks (Sarstedt, Germany) (Cat# 83.3911.002) and were incubated in a 5% CO2 atmosphere at 37 ℃. […] Following the incubation period, the media was removed, and cells were washed with sterile phosphate-buffered saline (PBS). […] Following the exposure period, the drug-containing media was removed, and cells were washed three times with PBS, ensuring complete removal of the test agents. A 5% working solution of Alamar Blue (Thermo Fisher Scientific, Ireland) (Cat# DAL1100) was prepared in dark conditions using unsupplemented cell culture media. 100 μl of the solution was added to each well, and the cells were incubated for 3 h. […] Each exposure was carried out in triplicate plates and was repeated three independent times. The software packages Microsoft^Ⓡ Excel (USA) and GraphPad Prism (Ver. 10.0.3) (GraphPad, USA) were used to analyse the alamar blue data. The treated sample values were first normalised to the negative control values. After normalisation, the mean and standard deviations (SD) were established using Microsoft^Ⓡ Excel. The statistical analysis package GraphPad was then used to determine the IC25 and IC50 concentrations.

[3] = MCF-12A, 24-h exposure, 25% reduction in metabolic activity, mean ± SD (N = 3)
[4] = MCF-12A, 24-hour exposure, per one metal centre, mean ± S.D. (N=3)
[5] = MCF-7, 24-h exposure, 25% reduction in metabolic activity, mean ± SD (N = 3)
[6] = MCF-7, 24-hour exposure, per one metal centre, mean ± S.D. (N=3)
[7] = MCF-12A, 24-hour exposure, per one metal centre, mean ± S.D. (N=3), read-out: IC50 calculated per one metal centre
[8] = MCF-7, 24-hour exposure, per one metal centre, mean ± S.D. (N=3), read-out: IC50 calculated per one metal centre

| Compound | Necrotic population (% cells) (MCF-7 cells [1]) | Cytotoxic activity IC25 ± SD (MCF-12A cells; [3]) [µM] | IC25 calculated per one metal centre (MCF-12A cells; [4]) | Decrease in toxicity compared to phen-containing complex 4 (MCF-7 cells [2]; Ag(I) pre-cursor vs complex 4) | Decrease in toxicity compared to phen-containing complex 5 (MCF-7 cells [2]; Ag(I) pre-cursor vs complex 5) [fold] | Cytotoxic activity IC25 ± SD (MCF-7 cells [2]; [5]) [µM] | IC25 calculated per one metal centre (MCF-7 cells [2]; [6]) | Cytotoxic activity IC25 ± SD (MCF-12A cells) [µM] | IC50 (MCF-12A cells) [µM] | IC50 (MCF-12A cells; [7]) [µM] | Cytotoxic activity IC25 ± SD (MCF-7 cells [2]) [µM] | IC50 (MCF-7 cells [2]) [µM] | IC50 (MCF-7 cells [2]; [8]) [µM] | IC50 (MCF-12A cells; MCF-12A, 24-h exposure, 50% reduction in metabolic activity, mean ± SD (N = 3), read-out: Cytotoxic activity IC50 ± SD) [µM] | IC50 (MCF-7 cells [2]; MCF-7, 24-h exposure, 50% reduction in metabolic activity, mean ± SD (N = 3), read-out: Cytotoxic activity IC50 ± SD) [µM] |
| --- | --- | --- | --- | --- | --- | --- | --- | --- | --- | --- | --- | --- | --- | --- | --- |
| O=C([O-])CCCCCCC(=O)[O-].[Ag+].[Ag+] [Complex 6, [Ag2(oda)]] | high necrotic populations | 6.43 ± 4.9 | 12.86 ± 9.80 µM | approximately twofold | ~3.5 | 13.90 ± 2.93 | 27.80 ± 5.86 µM | – | – | – | – | – | – | – | – |
| O=C([O-])CCCCCCC(=O)[O-].O=C([O-])CCCCCCC(=O)[O-].[Cu+2].[Cu+2] [Complex 3, [Cu2(oda)2]] | – | – | >100  µM | – | – | – | >100  µM | > 100 | > 100 | > 100 | > 100 | > 100 | > 100 | – | – |
| O.O=C([O-])CCCCCCC(=O)[O-].[Mn+2] [Complex 8, [Mn(oda)]⋅H2O] | – | > 100 | >100  µM | – | – | > 100 | >100  µM | – | – | > 100 | – | – | > 100 | > 100 | > 100 |
